Literature values, collected in US3968207A, “Method of controlling fleas and ticks on cats and dogs” (priority 1975, dated 1976).

Tested on: lice
Conditions: single spray treatment; cited from earlier work

Compound: CCOP(=S)(OCC)Oc1nc(Cl)c(Cl)cc1Cl [Dursban, O,O-diethyl O-(3,5,6-trichloro-2-pyridyl)phosphorothioate]
- control of lice on cattle: effective control
